Peptide text beside a SMILES is read from it. * marks the point of attachment. X1 = C[C@@H](O)[C@H](NN(CCCNC(N)N)CN*)C(N)=O; NH(4-amidinobenzyl) = N=C(N)c1ccc(CN*)cc1; X5 = N=C(N)NC/C=C/CN*
What was measured:
Mus musculus [1] = experiment: Antifibrotic activity against bleomycin-induced mouse lung fibrosis model assessed as inhibition of hydroxyproline content in lung at 10 mg/kg, ip administered twice daily; type: functional
Mus musculus [2] = experiment: Antifibrotic activity against bleomycin-induced mouse lung fibrosis model assessed as inhibition of TGF-beta secretion in lung at 10 mg/kg, ip administered twice daily; type: functional
Furin [3] = biological target: T1, Furin (Homo sapiens, UniProt P09958); experiment: Inhibition of furin in human U2OS cells measured after 24 hrs by fluorescence assay; type: cell-based
T1 sequence (P09958 whole entry): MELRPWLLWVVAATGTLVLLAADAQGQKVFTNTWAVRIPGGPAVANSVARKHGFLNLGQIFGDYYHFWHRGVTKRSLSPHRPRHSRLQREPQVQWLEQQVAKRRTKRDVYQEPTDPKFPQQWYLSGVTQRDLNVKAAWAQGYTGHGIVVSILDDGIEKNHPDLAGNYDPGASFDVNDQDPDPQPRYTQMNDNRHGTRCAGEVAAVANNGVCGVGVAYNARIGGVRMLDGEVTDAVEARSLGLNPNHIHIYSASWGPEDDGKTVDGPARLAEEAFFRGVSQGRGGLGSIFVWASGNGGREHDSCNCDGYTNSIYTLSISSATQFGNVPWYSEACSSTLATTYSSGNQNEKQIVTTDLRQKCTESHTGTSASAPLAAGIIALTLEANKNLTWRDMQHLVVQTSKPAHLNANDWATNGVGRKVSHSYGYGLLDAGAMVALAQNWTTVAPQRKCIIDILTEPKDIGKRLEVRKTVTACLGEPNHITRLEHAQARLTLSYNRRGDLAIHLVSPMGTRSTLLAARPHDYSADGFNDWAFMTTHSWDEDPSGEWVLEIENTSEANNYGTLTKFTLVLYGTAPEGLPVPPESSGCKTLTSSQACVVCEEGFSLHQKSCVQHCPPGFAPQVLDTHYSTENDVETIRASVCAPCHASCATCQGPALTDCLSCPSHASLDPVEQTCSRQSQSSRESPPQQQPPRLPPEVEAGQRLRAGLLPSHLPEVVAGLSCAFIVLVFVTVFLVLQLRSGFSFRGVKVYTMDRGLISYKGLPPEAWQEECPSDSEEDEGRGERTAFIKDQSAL

Furin [4] = biological target: T1, Furin; experiment: Inhibition of recombinant human furin using Phac-Arg-Val-Arg-Arg-AMC as substrate incubated for 30 mins and measured by microplate reader method
Furin [5] = biological target: T1, Furin; experiment: Inhibition of human furin expressed in HEK293 cells using pGlu-Arg-Thr-LysArg-AMC as substrate and measured by fluorescence based assay
Vero = experiment: Protective activity against Escherichia coli O157:H7 Shiga toxin-induced cytotoxicity in monkey Vero cells measured by LDH assay; type: functional, cell-based; details: Chlorocebus sabaeus
Furin [6] = biological target: T1, Furin; experiment: Inhibition of furin (unknown origin)
[7] = Stability in mouse plasma assessed as half-life; type: ADME, cell-free
[8] = Dissociation constant, pKa of the compound; type: physicochemical
Furin [9] = biological target: T1, Furin; experiment: Inhibition of human furin using Pyr-RTKR-AMC as substrate preincubated for 30 mins followed by substrate addition and measured by fluorescence based assay
Mus musculus [10] = experiment: Antifibrotic activity against bleomycin-induced mouse lung fibrosis model assessed as inhibition of hydroxyproline content in lung at 30 mg/kg, po administered once daily; type: functional
Mus musculus [11] = experiment: Antifibrotic activity against bleomycin-induced mouse lung fibrosis model assessed as inhibition of TGF-beta secretion in lung at 30 mg/kg, po administered once daily; type: functional
[12] = Stability in mouse plasma assessed as compound remaining measured after 24 hrs; type: ADME, cell-free; details: read-out: Stability
Furin [13] = biological target: T1, Furin; experiment: Inhibition of recombinant human furin protease
Furin [14] = biological target: T1, Furin; experiment: Inhibition of soluble recombinant human furin using pyroGlu-Arg-Thr-Lys-Arg-AMC as substrate and measured by fluorescence assay

Q: For CC(=O)NCC1CCN(Cc2cc(Oc3cnc(N4CCN(CCC(=O)O)CC4)nc3)nc(-c3cc(Cl)cc(Cl)c3)c2)CC1, which inhibition in vivo at 10 mg/kg (Mus musculus [1]) is on record?
A: 60%

Q: And the inhibition in vivo at 10 mg/kg (Mus musculus [2])?
A: 86%

Q: What about the pXC50 (Furin [3]) of the same molecule?
A: 8

Q: With CC(C)(C)[C@H](NC(=O)CCCCNC(=N)N)C(=O)N[C@@H](CCCNC(=N)N)C(=O)NCc1ccc(C(=N)N)cc1 as the molecule, how does the Ki (Furin [4]) read?
A: 0.00126 µM

Q: For CC(C)(C)[C@H](NC(=O)[C@H](CCCNC(=N)N)NC(=O)Cc1ccccc1)C(=O)N[C@@H](CCCNC(=N)N)C(=O)NCc1ccc(C(=N)N)cc1, which Ki (Furin [5]) is on record?
A: 0.17 nM

Q: With CC(=O)N[C@@H](CCCNC(=N)N)C(=O)N[C@@H](C)C(=O)N[C@@H](CCCNC(=N)N)C(=O)N[C@@H](CCCNC(=N)N)C(=O)N[C@@H](CCCNC(=N)N)C(=O)N[C@@H](CCCCN)C(=O)N[C@@H](CCCCN)C(=O)NCc1ccc(C(=N)N)cc1 (Ac-RARRRKK-{NH(4-amidinobenzyl)}) as the molecule, how does the IC50 (Vero) read?
A: > 1000 µM

Q: What about the Ki (Furin [6]) of the same molecule?
A: 0.0038 µM

Q: What about the half-life [7] of the same molecule?
A: 9.1 h

Q: With CC(=O)NCC1CCN(Cc2cc(Oc3ccc(N4CCN(CC(=O)O)CC4)nc3)nc(-c3cc(Cl)cc(Cl)c3)c2)CC1 as the molecule, how does the inhibition in vivo at 10 mg/kg (Mus musculus [1]) read?
A: 16%

Q: And the inhibition in vivo at 10 mg/kg (Mus musculus [2])?
A: 43%

Q: And the pXC50 (Furin [3])?
A: 6.9

Q: Which pKa [8] does the source give for CC(C)(C)[C@H](NC(=O)[C@H](CCCNC(=N)N)NC(=O)Cc1ccc(CNC(=N)N)cc1)C(=O)N[C@@H](CCCNC(=N)N)C(=O)NCc1ccc(N)nc1 here?
A: 6.5

Q: And the IC50 (Furin [6])?
A: 0.00298 µM

Q: What about the Ki (Furin [6]) of the same molecule?
A: 0.0008 µM

Q: For CC(=O)N[C@@H](CCCNC(=N)N)C(=O)N[C@H](C(=O)N[C@@H](Cc1ccc(N=C(N)N)cc1)C(=O)NCc1ccc(C(=N)N)cc1)C(C)C, which Ki (Furin [9]) is on record?
A: 0.007 µM

Q: Which results are given for O=C(O)CC1CCN(Cc2cc(Oc3cnc(N4CCN5CCC4C5)nc3)nc(-c3cc(Cl)cc(Cl)c3)c2)CC1 (stereo unspecified)?
A: inhibition in vivo at 30 mg/kg (Mus musculus [10]): 34%; inhibition in vivo at 30 mg/kg (Mus musculus [11]): 36%; pXC50 (Furin [3]): 7.7

Q: For CC(=O)NN(CCCNC(=N)N)CC(=O)N[C@@H](C)C(=O)N[C@@H](CCCNC(=N)N)C(=O)N[C@@H](CCCNC(=N)N)C(=O)N[C@@H](CCCNC(=N)N)C(=O)N[C@@H](CCCCN)C(=O)N[C@@H](CCCCN)C(=O)NN(CCCNC(=N)N)CC(=O)N[C@H](C(N)=O)[C@@H](C)O, which remaining at 24 h [12] is on record?
A: 45%

Q: And the IC50 (Vero)?
A: 20.8 µM

Q: What about the Ki (Furin [6]) of the same molecule?
A: 0.046 µM

Q: And the half-life [7]?
A: 2.68 h

Q: With CC(=O)N[C@@H](CCCNC(=N)N)C(=O)N[C@@H](C)C(=O)N[C@@H](CCCNC(=N)N)C(=O)N[C@@H](CCCNC(=N)N)C(=O)N[C@@H](CCCNC(=N)N)C(=O)N[C@@H](CCCCN)C(=O)N[C@@H](CCCCN)C(=O)NC/C=C/CNC(=N)N (Ac-RARRRKK-X5) as the molecule, how does the IC50 (Vero) read?
A: 71 µM

Q: Which inhibition in vivo at 30 mg/kg (Mus musculus [10]) does the source give for CN1CCCN(c2ncc(Oc3cc(CN4CCC(CC(=O)O)CC4)cc(-c4cc(Cl)cc(Cl)c4)n3)cn2)CC1 here?
A: 36%

Q: And the inhibition in vivo at 30 mg/kg (Mus musculus [11])?
A: 34%

Q: And the pXC50 (Furin [3])?
A: 8.2

Q: With CC(=O)N[C@@H](CCCNC(=N)N)C(=O)N[C@H](C(=O)N[C@@H](Cc1ccc(N=C(N)N)cc1)C(=O)NCc1ccc(C(=N)N)cc1F)C(C)C as the molecule, how does the Ki (Furin [9]) read?
A: 0.009 µM

Q: What does the source list for CC(=O)N[C@@H](CCCNC(=N)N)C(=O)N[C@@H](C)C(=O)N[C@@H](CCCNC(=N)N)C(=O)N[C@@H](CCCNC(=N)N)C(=O)N[C@@H](CCCNC(=N)N)C(=O)N[C@@H](CCCCN)C(=O)N[C@@H](CCCCN)C(=O)N[C@@H](CCCNC(=N)N)C(=O)N[C@H](C(N)=O)[C@@H](C)O?
A: remaining at 24 h [12]: 5%; IC50 (Vero): > 1000 µM; Ki (Furin [6]): 0.019 µM; half-life [7]: 1.7 h; Ki (Furin [13]): 0.019 µM

Q: Which Ki (Furin [14]) does the source give for C/C(=N\NC(=N)N)c1ccc(NC(=O)CCCCC(=O)Nc2ccc(/C(C)=N/NC(=N)N)cc2)cc1 here?
A: 1.21 µM

Q: With CC(=O)N[C@@H](CCCNC(=N)N)C(=O)N[C@H](C(=O)N[C@@H](Cc1ccc(N=C(N)N)cc1)C(=O)NCc1ccc(/C(N)=N/O)cc1)C(C)C as the molecule, how does the Ki (Furin [9]) read?
A: 1.2 µM

Q: For CC(=O)N[C@@H](CCCNC(=N)N)C(=O)N[C@@H](C)C(=O)N[C@@H](CCCNC(=N)N)C(=O)N[C@@H](CCCNC(=N)N)C(=O)N[C@@H](CCCNC(=N)N)C(=O)N[C@@H](CCCCN)C(=O)N[C@@H](CCCCN)C(=O)NCN(CCCNC(N)N)N[C@H](C(N)=O)[C@@H](C)O (Ac-RARRRKK-X1), which remaining at 24 h [12] is on record?
A: 57%

Q: And the IC50 (Vero)?
A: 314 µM

Q: And the Ki (Furin [6])?
A: 0.028 µM

Q: And the half-life [7]?
A: 2.25 h

Q: With CC(C)[C@H](NC(=O)[C@H](CCCNC(=N)N)NC(=O)Cc1cccc(CNC(=N)N)c1)C(=O)N[C@@H](CCCNC(=N)N)C(=O)NCc1ccc(C(=N)N)cc1 as the molecule, how does the Ki (Furin [5]) read?
A: 0.016 nM

Q: With CC(C)[C@H](NC(=O)CCCCNC(=N)N)C(=O)N[C@@H](CCCNC(=N)N)C(=O)NCc1ccc(C(=N)N)cc1 as the molecule, how does the Ki (Furin [4]) read?
A: 0.0025 µM

Q: With CC(C)[C@H](NC(=O)[C@H](CCCNC(=N)N)NC(=O)Cc1ccc(CNC(=N)N)cc1)C(=O)N[C@@H](CCCNC(=N)N)C(=O)NCc1ccc(C(=N)N)cc1 as the molecule, how does the Ki (Furin [5]) read?
A: 0.0076 nM
